Measured values as given in article PMC4533885, “Mouse Mincle: Characterization as a Model for Human Mincle and Evolutionary Implications” (Molecules, 2015).

Target: T1, mouse mincle (CLEC-4E) CRD, biotin-tagged (Mus musculus, UniProt Q9R0Q8)
T1 construct: gene Clec4e; minimal C-terminal carbohydrate-recognition domain (primers encode ACPLNWKHY... to ...PEISPLD) with C-terminal biotinylation tag GLNDIFEAQKIEWHE kept; immobilized on streptavidin wells
T1 sequence (Q9R0Q8 80-214): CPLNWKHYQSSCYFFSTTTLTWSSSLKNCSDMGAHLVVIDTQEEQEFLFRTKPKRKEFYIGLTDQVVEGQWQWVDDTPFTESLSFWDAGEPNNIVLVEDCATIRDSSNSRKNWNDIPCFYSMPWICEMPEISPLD
Experiment: solid-phase competition with […]-Man-BSA reporter, CRD immobilized on streptavidin wells
Type: binding

- Ki: 540 ± 180 µM
Compound: OC[C@H]1O[C@H](O[C@H]2O[C@H](CO)[C@@H](O)[C@H](O)[C@H]2O)[C@H](O)[C@@H](O)[C@@H]1O [trehalose]
